According to ChEMBL document CHEMBL1151167, “New marine sesquiterpenoids and diterpenoids from the Okinawan soft coral Clavularia koellikeri” (2004):
Converted amounts (≈) assume the structure as drawn.

Legend:
Assay type in all cases: functional
NCI-H522 = assay: Cytotoxicity against human NCI-H522 cells after 48 hrs by SRB assay; conditions: NCI-H522, 48 h
LOX IMVI = assay: Cytotoxicity against human LOXIMVI cells after 48 hrs by SRB assay
MKN-74 = assay: Cytotoxicity against human MKN74 cells after 48 hrs by SRB assay; conditions: MKN-74, 48 h
SF-539 = assay: Cytotoxicity against human SF539 cells after 48 hrs by SRB assay; conditions: SF-539, 48 h
SNB-75 = assay: Cytotoxicity against human SNB75 cells after 48 hrs by SRB assay; conditions: SNB-75, 48 h

C/C1=C\CC2=CC[C@@H](C(C)C)[C@]2(C)C[C@@H](O)/C(C)=C/CC1 was tested, and the GI50 (NCI-H522) was 5.2 µg/mL (≈ 18 µM), the GI50 (LOX IMVI) was 4.9 µg/mL (≈ 17 µM) and the GI50 (MKN-74) was 5.2 µg/mL (≈ 18 µM). For the same compound, the GI50 (SF-539) was 4.9 µg/mL (≈ 17 µM) and the GI50 (SNB-75) was 4.9 µg/mL (≈ 17 µM).
